Values after ≈ are worked out from the molar mass of the structure shown.
Legend:
P388 = test: Cytotoxicity in P-388 cell line; format: functional, cell-based; conditions: Mus musculus
RPMI-7951 = test: Cytotoxicity in RPMI-7951 cell line; format: functional, cell-based; conditions: Homo sapiens
Oryctolagus cuniculus = organism: Oryctolagus cuniculus; test: Compound was tested for inhibition of platelet aggregation induced by arachidonic acid(100 uM) at a dose of 10 ug/mL in rabbit; format: functional
TE-671 = test: Cytotoxicity in TE671 cell line; format: functional, cell-based; conditions: Homo sapiens
HCT-8 = test: Cytotoxicity in HCT-8 cell line; format: functional, cell-based; conditions: Homo sapiens

Row | SMILES | IC50 (P388) [µg/mL] | IC50 (RPMI-7951) [µg/mL] | Inhibition (Oryctolagus cuniculus) [%] | IC50 (TE-671) [µg/mL] | IC50 (HCT-8) [µg/mL]
1 | COC1=CC(=O)c2[nH]c3ccc(C)c(O)c3c2C1=O | 2.24 (≈ 8.71 µM) | 0.33 (≈ 1.28 µM) | 100 | 0.17 (≈ 0.661 µM) | 1.82 (≈ 7.07 µM)
2 | COC1=CC(=O)c2[nH]c3cc(O)c(C)cc3c2C1=O |  | 0.22 (≈ 0.855 µM) |  | 3.82 (≈ 14.8 µM) | 0.92 (≈ 3.58 µM)

From ChEMBL document CHEMBL1127996, “Structure and synthesis of clausenaquinone-a. A novel carbazolequinone alkaloid and bioactive principle from Clausena excavata” (Bioorg Med Chem Lett, 1994)
